Several values for one entry are separate records, joined by “and”; a condition that tells them apart may be missing. Equal entries are not always repeated.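 Method: 48-hour compound exposure of cells in 96-well plates, five concentrations, linear interpolation of endpoints. At the GI50, growth is halved. TGI marks complete inhibition of growth.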
How the values were obtained:
Assay in all cases: NCI-60 cell line screen, 48 h
786-0 renal = tested on: 786-0 renal
DU-145 prostate = tested on: DU-145 prostate
HOP-92 NSCLC = tested on: HOP-92 NSCLC
LOX IMVI melanoma = tested on: LOX IMVI melanoma
MDA-MB-231 breast = tested on: MDA-MB-231 breast
NCI-H23 lung = tested on: NCI-H23 lung
RXF 393 renal = tested on: RXF 393 renal
SF-268 CNS = tested on: SF-268 CNS
UACC-62 melanoma = tested on: UACC-62 melanoma
UO-31 renal = tested on: UO-31 renal

Structure (SMILES)	TGI (786-0 renal) [µM]	TGI (DU-145 prostate)	TGI (HOP-92 NSCLC)	TGI (LOX IMVI melanoma)	TGI (MDA-MB-231 breast)	TGI (NCI-H23 lung)	TGI (RXF 393 renal)	TGI (SF-268 CNS)	TGI (UACC-62 melanoma)	TGI (UO-31 renal)	GI50 (DU-145 prostate) [µM]	GI50 (HOP-92 NSCLC)	GI50 (LOX IMVI melanoma) [µM]	GI50 (NCI-H23 lung) [µM]	GI50 (RXF 393 renal) [µM]	GI50 (SF-268 CNS) [µM]	GI50 (UACC-62 melanoma)	GI50 (UO-31 renal)
C[C@]12CC[C@H]3[C@@H](CC=C4C[C@@H](O)CC[C@@]43C)[C@@H]1C/C(=C\c1ccc([N+](=O)[O-])cc1)[C@@H]2O	22.8	23 µM	91.7 µM	> 100 µM	22.6 µM	51.7 µM	21.4 µM	> 100 µM	34.1 µM	24.4 µM	–	–	–	–	–	–	–	–
COC1(C)CCC(OS(C)(=O)=O)CO1 (stereo unspecified)	> 100	> 100 µM	> 100 µM	> 100 µM	> 100 µM	> 100 µM	> 100 µM	> 100 µM	> 100 µM	> 100 µM	–	–	–	–	–	–	–	–
CC(C)=CCNc1ncnc2c1ncn2CCC(=O)O	> 100	> 100 µM	> 100 µM	> 100 µM	> 100 µM	> 100 µM	> 100 µM	> 100 µM	> 100 µM	> 100 µM	–	–	–	–	–	–	–	–
CC(Cl)(CCC(Cl)C(C)(C)Cl)C(=O)CBr (stereo unspecified)	20.7	33.7 µM	20.8 µM	5.76 µM	23.9 µM	39.5 µM	11.2 µM	31.7 µM	22.7 µM	22 µM	–	–	–	–	–	–	–	–
C#CC(O)/C=C/C(O)CCCC(O)CC#CC(O)C#CCCCCC(O)/C=C/CCCC(=O)CCCCCCCCCCCCCCCC(O)C(O)C#CC(=O)O (stereo unspecified)	> 25	> 25 µM	> 25 µM	10.4 µM	> 25 µM	> 25 µM	> 25 µM	> 25 µM	> 25 µM	> 25 µM	–	–	–	–	–	–	–	–
COc1ccc(-c2c(/C=N/OCC(=O)O)c3sc4ccccc4n3c2/C=N/OCC(=O)O)cc1	> 50	> 50 µM	> 50 µM	> 50 µM	> 50 µM	> 50 µM	> 50 µM	> 50 µM	> 50 µM	> 50 µM	–	–	–	–	–	–	–	–
COC(=O)CCCc1nc2ccccc2nc1N=Nc1ccccc1	> 100	> 100 µM	> 100 µM	31.3 µM	> 100 µM	> 100 µM	> 100 µM	> 100 µM	> 100 µM	> 100 µM	–	–	–	–	–	–	–	–
CC(C)=CC(=O)OC1C2C(C)=CC(=O)C(O)C2(C)C2C3(O)OCC24C(CC(=O)OC14)C(C)C3O (stereo unspecified)	0.0834	0.0173 µM and 0.141 µM	0.0465 µM and 0.0367 µM	–	0.0596 µM and 0.0264 µM	–	0.0732 µM and 0.131 µM	0.049 µM and 0.014 µM and 0.091 µM	0.0313 µM and 0.0404 µM	0.545 µM and 4.78 µM and 1.03 µM	0.0225	0.0207 µM	0.0298	0.02	0.0339	0.0088	0.0204 µM	0.829 µM
C=CC(C)(C)/C(=C\CO[Si](C(C)C)(C(C)C)C(C)C)C(=O)N(C)c1ccccc1I	27.6	29.4 µM	22.2 µM	27.4 µM	28.9 µM	23.6 µM	24.5 µM	24.5 µM	28.7 µM	25.9 µM	–	–	–	–	–	–	–	–
CCOC(=O)/C=C(/C(=O)OCC)n1cc(C)c(=O)n(Cc2cn(CCCCOC(C)=O)nn2)c1=O	> 100	> 100 µM	3.11 µM	49.5 µM	65.4 µM	31.9 µM	> 100 µM	38.7 µM	30.5 µM	28.3 µM	–	–	–	–	–	–	–	–
COC(=O)[C@@H]1C=CCN1S(=O)(=O)c1ccc(C)cc1	> 100	> 100 µM	> 100 µM	> 100 µM	> 100 µM	> 100 µM	> 100 µM	> 100 µM	> 100 µM	> 100 µM	–	–	–	–	–	–	–	–
CC1(C)CC(=O)C2=C(C1)NC(=S)C(C#N)C2c1ccccc1 (stereo unspecified)	> 100	> 100 µM	> 100 µM	> 100 µM	> 100 µM	> 100 µM	> 100 µM	> 100 µM	> 100 µM	> 100 µM	–	–	–	–	–	–	–	–
C[C@H](NC(=O)C(C)(Cc1ccc(O)cn1)NC(=O)c1ccccc1)c1ccccc1 (stereo partly specified)	> 100	> 100 µM	> 100 µM	> 100 µM	> 100 µM	> 100 µM	> 100 µM	> 100 µM	> 100 µM	> 100 µM	–	–	–	–	–	–	–	–
COC1OC(C)/C(=N/O)C2OC(C)(C)OC12 (stereo unspecified)	> 100	> 100 µM	> 100 µM	> 100 µM	> 100 µM	> 100 µM	> 100 µM	> 100 µM	> 100 µM	> 100 µM	–	–	–	–	–	–	–	–
CCOP(=O)(OCC)C(c1ccccc1)N(C(=O)NC(F)(F)F)c1ccc(C)cc1 (stereo unspecified)	> 100	> 100 µM	> 100 µM	> 100 µM	> 100 µM	> 100 µM	> 100 µM	> 100 µM	> 100 µM	> 100 µM	–	–	–	–	–	–	–	–
CCC1OC2(C)CC(C#N)(C#N)C1(C#N)C(=N)O2 (stereo unspecified)	> 100	> 100 µM	> 100 µM	> 100 µM	> 100 µM	> 100 µM	> 100 µM	> 100 µM	> 100 µM	> 100 µM	–	–	–	–	–	–	–	–
Cc1ccc(N=Nc2c(O)ccc3ccccc23)c(C)c1	> 100	> 100 µM	> 100 µM	> 100 µM	> 100 µM	> 100 µM	> 100 µM	> 100 µM	> 100 µM	> 100 µM	–	–	–	–	–	–	–	–

Structure (SMILES)	TGI (786-0 renal) [µM]	TGI (DU-145 prostate)	TGI (HOP-92 NSCLC)	TGI (LOX IMVI melanoma)	TGI (MDA-MB-231 breast)	TGI (NCI-H23 lung)	TGI (RXF 393 renal)	TGI (SF-268 CNS)	TGI (UACC-62 melanoma)	TGI (UO-31 renal)	GI50 (DU-145 prostate) [µM]	GI50 (HOP-92 NSCLC)	GI50 (LOX IMVI melanoma) [µM]	GI50 (NCI-H23 lung) [µM]	GI50 (RXF 393 renal) [µM]	GI50 (SF-268 CNS) [µM]	GI50 (UACC-62 melanoma)	GI50 (UO-31 renal)
O=C(Oc1cncc(Cl)c1)c1cc2ccccc2sc1=O	> 100	> 100 µM	> 100 µM	> 100 µM	> 100 µM	> 100 µM	91.1 µM	> 100 µM	> 100 µM	> 100 µM	–	–	–	–	–	–	–	–
Oc1ccc(Nc2nc(Cl)c3[nH]cnc3n2)cc1	> 100	> 100 µM	38.2 µM	> 100 µM	> 100 µM	> 100 µM	> 100 µM	> 100 µM	> 100 µM	> 100 µM	–	–	–	–	–	–	–	–
O=[N+]([O-])/C(Cl)=C(\NCCO)C(Cl)=C(Cl)Cl	73.8	> 100 µM	> 100 µM	> 100 µM	> 90.7 µM	> 100 µM	> 96.3 µM	> 100 µM	> 100 µM	> 86.4 µM	–	–	–	–	–	–	–	–
O=C(NNC(=O)c1ccc(Cl)cc1NC(=O)C12CC3CC(CC(C3)C1)C2)c1ccc(Cl)cc1	56.1	62.1 µM	51.9 µM	37.7 µM	51.2 µM	> 100 µM	40.3 µM	> 100 µM	55.8 µM	33.7 µM	–	–	–	–	–	–	–	–
Cc1c(C(=O)O)sc2nc[nH]c(=O)c12	> 100	> 100 µM	> 100 µM	> 100 µM	> 100 µM	> 100 µM	> 100 µM	> 100 µM	> 100 µM	> 100 µM	–	–	–	–	–	–	–	–
COC(=O)c1ccc(C)cc1C1CN=NC12Cc1cccc(C)c1C2=O (stereo unspecified)	> 100	> 100 µM	> 100 µM	63.9 µM	> 100 µM	> 100 µM	> 100 µM	> 100 µM	53.1 µM	78.3 µM	–	–	–	–	–	–	–	–
Cc1c2oc(=O)c(C#N)cc2c2ccccn12	> 100	> 100 µM	> 100 µM	> 100 µM	> 100 µM	> 100 µM	> 100 µM	> 100 µM	> 100 µM	> 100 µM	–	–	–	–	–	–	–	–
CCN(CC)CC[n+]1ccc2c(C)c3[nH]c4ccccc4c3c(C)c2c1	5.96	3.72 µM	1.94 µM and 4.34 µM and 2.71 µM	2.13 µM and 3.73 µM and 16.3 µM	2.93 µM	2.22 µM and 2.24 µM and 4.13 µM	8.83 µM and 8.41 µM and 7.26 µM	1.07 µM and 1.28 µM and 1.64 µM	1.65 µM and 2.56 µM and 3.75 µM	78.6 µM and 44 µM and 16.8 µM	–	0.342 µM and 0.833 µM and 0.242 µM	–	0.394	1.83	–	0.491 µM and 0.827 µM and 1.27 µM	22.6 µM and 10.5 µM and 4.12 µM
Nc1ccnc2c1ncn2[C@H]1C[C@H](O)[C@@H](CO)O1	> 100	> 100 µM	> 100 µM	> 100 µM	> 100 µM	> 100 µM	> 100 µM	> 100 µM	> 100 µM	> 100 µM	–	–	–	–	–	–	–	–
C#CCn1c(I)cc2c(c1=O)COC(=O)[C@]2(O)CC	> 100	> 100 µM	> 100 µM	> 100 µM	> 100 µM	> 100 µM	> 100 µM	> 100 µM	> 100 µM	> 100 µM	–	–	–	–	–	–	–	–
CC(C)(C)c1cc(C(C)(C)C)c(SC2OC(CO)C(O)C(O)C2O)c(O)c1O (stereo unspecified)	30.4	31.8 µM	> 42.6 µM	22.9 µM	50.9 µM	17.9 µM	14.1 µM	20.4 µM	4.99 µM	79.2 µM	–	–	–	–	–	–	–	–
CC(=O)OC1C2CCC3CC2C2(SCCS2)C31 (stereo unspecified)	> 100	> 100 µM	> 100 µM	> 100 µM	> 100 µM	> 100 µM	> 100 µM	> 100 µM	> 100 µM	> 100 µM	–	–	–	–	–	–	–	–
CC(C)(C)OC(=O)NCC(c1c[nH]c2ccccc12)c1c[nH]c2ccccc12	32	29 µM	27.5 µM	35.3 µM	31.9 µM	36.4 µM	17.7 µM	33.6 µM	> 100 µM	27.4 µM	–	–	–	–	–	–	–	–
C[C@@H]1C[C@@H]2OC(=O)[C@]3(C)[C@H]2[C@@H](OC3(C)O)[C@]2(C)C(=O)C=C[C@@H]12 (stereo partly specified)	> 100	> 100 µM	38.9 µM	43 µM	64.5 µM	70 µM	46 µM	> 100 µM	31.6 µM	> 100 µM	–	–	–	–	–	–	–	–
CC12CC(c3ccccc3O1)C(C(=O)Nc1nccs1)C(=O)N2 (stereo unspecified)	> 100	> 100 µM	> 100 µM	> 100 µM	> 100 µM	> 100 µM	> 100 µM	> 100 µM	> 100 µM	> 100 µM	–	–	–	–	–	–	–	–
COc1c(NC(C)=O)c2ccccc2c2ccccc12	> 100	> 100 µM	> 100 µM	> 100 µM	> 100 µM	> 100 µM	> 100 µM	> 100 µM	> 100 µM	> 100 µM	–	–	–	–	–	–	–	–
